These results are taken from patent EP0619313A1, “LITHIUM SALT OF 2-O-ALK[…]” (TSUMURA & CO., priority 1992, dated 1994).

Series [1] relates to lipid peroxidation enzyme. Put plainly: Inhibitory activity against lipid peroxidation enzyme (rat liver microsome, carbon tetrachloride, thiobarbituric acid). The settings on record: 300 µM; carbon tetrachloride 20 mM; 37°C for 12 minutes. The format is biochemical. The procedure:
Rat liver microsome (2 mg), which is a NADPH generating system, the test compound (2-O-octadecylascorbic acid lithium obtained Example 1)(300 µM) and carbon tetrachloride (20 mM) were reacted at 37°C for 12 minutes. A mixed solution of thiobarbituric acid and trichloroacetic acid was added to the solution. Absorbance was measured at 535 nm.
(In general: Liver microsomes are vesicles of endoplasmic reticulum, rich in cytochrome P450 enzymes.)

Another series relates to Jcl:ICR mice. Put plainly: Toxicity after oral or intravenous administration, mice. The format is in vivo. The procedure:
(§1) The test compound was administered orally or intravenously to Jcl:ICR mice and Jcl:Wistar rats (two mice or rats (male and female) per group). 2-O-octadecylascorbic acid lithium obtained in Example 1 as the test compound was suspended in 0.5% methyl cellulose in the case of oral administration and dissolved in physiological saline in the case of intravenous administration.

Test in series [2]: as above
The format is in vivo. The settings on record: mouse, in vivo, read-out: LD₅₀. The procedure:
as §1

The subject of series [3] is rabbit defibrinated blood. Kind of series: Hemolysis test with rabbit defibrinated blood. It is filed as cell-based. The following applies: not more than 1 µg/ml in physiological saline; 37°C for 1 hour; macroscopic observation of the supernatant. The procedure: A physiological saline solution containing 2-O-octadecylascorbic acid lithium obtained in Example 1 below was warmed to 37°C, put in a Spitz roll, provided with rabbit defibrinated blood (Note)(0.1 ml) previously warmed to 37°C, shaken for mixing gently and warmed at 37°C for 1 hour. Then, this liquid was subjected to centrifugation. Macroscopic observation was made as to whether the supernatant had hemolysis.
Blood (about 20 ml) was drawn from rabbits, put in a flask containing about twenty glass beads of diameter of 8 mm, shaken for mixing gently for about 5 minutes and filtered through gauze. This preparation was carried out before use.

The target of series [4] is T1, Phospholipase A₂ derived from pig pancreas (Sus scrofa, UniProt P00592).
T1 construct: Phospholipase A₂ derived from pig pancreas; from tissue; host or cells: pig pancreas
T1 sequence (P00592 23-146): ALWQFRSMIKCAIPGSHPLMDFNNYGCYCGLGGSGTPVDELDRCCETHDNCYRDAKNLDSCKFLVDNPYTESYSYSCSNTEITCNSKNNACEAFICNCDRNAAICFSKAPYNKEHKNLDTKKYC
Put plainly: Inhibitory activity against phospholipase A₂. The settings on record: pH 9, read-out: enzymatic activity of the phospholipase inhibited. It is filed as biochemical. The procedure: Phospholipase A₂ derived from pig pancreas was reacted for 10 minutes in 0.1M glycine-NaOH buffer (pH 9) containing a test compound (2-O-octadecylascorbic acid lithium obtained in Example 1)(300 µM) and labeled phosphatidylcholine. Thereafter, Ca⁺⁺ (2.5 mM) was added and the reaction was continued for additional 5 minutes. The reaction was stopped by adding 0.2M EDTA solution to the reaction mixture. The mixture was extracted with acidic […]. Scintillation of the […] layer was measured.

Series [5] deals with myocardial infarction focus. Put plainly: Inhibition of development of myocardial infarction focus after coronary obstruction-reperfusion in rats. It is filed as in vivo, Male Wistar-rats. The settings on record: 1 mg/kg intravenous. The procedure: Male Wistar-rats (11 to 12 weeks old) were used and anethesized with pentobarbital-Na, and medianus thoracotomy was carried out under artificial respiration. After incising the pericardium membrane, the heart was exposed. The base of the left coronary artery together with cardiac muscle was threaded with a sutural needle and thread (marketed by Lederle (Japan), Ltd., 7-0 silk), which were passed through a polyethylene tube, and the thread was pulled. Thus, coronary artery was obstructed. One hour later, the thread was loosed to make blood to flow again. Thirty to sixty minutes after reperfusion, the thorax was closed and the rat was kept under arousal.
After 24 hours, the rats were anesthetized again, and the heart was removed quickly and soaked in ice-cooled physiological saline. The coronary artery was obstructed again to know a dangerous region. Evans' Blue (1%) was perfused through a polyethylene tube inserted into the aorta retrogradely, and normal region was separated from the dangerous region. Thereafter, the left ventricle was divided into 6 parts parallel to the vertical axis and dyed with triphenyl tetrazolium chloride (TTC)(1%) at 37°C for 10 minutes except necrotic cells. The infarction focus was weighed. The test drug (2-O-octadecylascorbic acid obtained in Example 1) was dissolved in physiological saline, and administered intravenously 30 minutes after the coronary obstruction.

The nature of a further series: Water-solubility. The settings on record: at 28°C.
The target in series [6] is T2, GST-cdc25Hu2 fused protein (Homo sapiens, UniProt P30305).
T2 sequence (P30305 1-580): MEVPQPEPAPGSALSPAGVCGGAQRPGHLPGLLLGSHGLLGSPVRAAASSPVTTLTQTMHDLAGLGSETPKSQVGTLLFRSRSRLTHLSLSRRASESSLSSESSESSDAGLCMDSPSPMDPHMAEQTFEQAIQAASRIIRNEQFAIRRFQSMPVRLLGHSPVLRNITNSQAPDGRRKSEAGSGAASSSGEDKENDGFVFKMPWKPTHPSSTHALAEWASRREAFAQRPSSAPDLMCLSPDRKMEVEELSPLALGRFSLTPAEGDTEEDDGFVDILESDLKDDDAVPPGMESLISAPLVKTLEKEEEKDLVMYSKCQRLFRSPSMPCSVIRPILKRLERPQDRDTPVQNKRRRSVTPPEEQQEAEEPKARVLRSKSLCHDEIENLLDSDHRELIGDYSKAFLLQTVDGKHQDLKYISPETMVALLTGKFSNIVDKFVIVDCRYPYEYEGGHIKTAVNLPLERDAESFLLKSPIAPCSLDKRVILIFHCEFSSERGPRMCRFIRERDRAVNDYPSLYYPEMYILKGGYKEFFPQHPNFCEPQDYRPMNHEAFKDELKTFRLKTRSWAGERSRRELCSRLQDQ
Kind of series: GST-cdc25Hu2 (protein phosphatase) inhibitory activity. The format is biochemical. The settings on record: 37°C for 60 minutes, read-out: cdc25 activity inhibited. The procedure:
A test compound (2-O-octadecylascorbic acid lithium obtained in Example 1)(80 µM) was added to a reaction mixture containing GST-cdc25Hu2 fused protein (60 µg/ml), p-nitrophenylphosphate (manufactured by Wako Pure Chemical Industries, Ltd.)(10 mM), bovine serum albumin (manufactured by Sigma, U.S.A.)(100 µg/ml), DDT (dithiothreitol) (manufactured by Wako Pure Chemical Industries, Ltd.)(10 mM) and HEPES (2-hydroxyethylpiperazine-N'-2-ethane sulfate)(25 mM, pH 8.0). The mixture was subjected to reaction at 37°C for 60 minutes. Then, absorbance at 405 nm was measured, and the inhibitory activity was evaluated based on the decrease of the absorbance.

In a further series the test system is Jcl:Wistar rats. Kind of series: Toxicity after oral or intravenous administration, rats. The format is in vivo. The procedure:
as §1

Test in series [7]: as above
The format is in vivo. The settings on record: rat, in vivo, read-out: LD₅₀. The procedure:
as §1

Where [8] appears, read: intravenous administration, dissolved in physiological saline.
The mark [9] stands for this setting: oral administration, suspended in 0.5% methyl cellulose.

As for `CCCCCCCCCCCCCCCCCCOC1=C(O)[C@@H]([C@@H](O)CO)OC1=O.[Li]` [2-O-octadecylascorbic acid lithium], in series [1], the “inhibitory ratio of the enzymatic activity” value is 75%. Also, the “Abnormal findings in the autopsy of the survivors” value with Jcl:ICR mice and in the series on Jcl:Wistar rats was “not observed” each time. The “autopsy of the dead animals” value with Jcl:ICR mice (intravenous administration) and in the series with Jcl:Wistar rats (intravenous administration) was “Pulmonary congestion was observed” in each case. In addition, the LD50 was 25 to 50 mg/kg in series [2] (setting [8]), at least 2000 mg/kg in [2] (setting [9]), 25 to 50 mg/kg in series [7] (setting [8]) and at least 2000 mg/kg in series [7] (setting [9]). Further, in series [3], the hemolysis result is “not observed”. In series [4], the inhibition at 300 µM was 59%. In addition, the “infarction focus per the dangerous region (IS/AR)” value in series [5] (30 minutes after the coronary obstruction, N=7, control 60.0±1.8%) came to 40.5±4.6%. Moreover, the “inhibition in comparison with the control group” value in series [5] (P<0.001) is on record as 32.7%. Moreover, the “dangerous region per left ventricle (AR/LV)” value in [5] (compared with the physiological saline group) is on record as “no significant difference”. For the same molecule, in “Water-solubility”, the water-solubility is 1 g/83 ml (water). The inhibition at 80 µM in [6] was 93.6%.
